Key:
Type in all cases: in vivo, SD rats
[1] = test system: rats with stroke; assay: Immediate treatment after stroke onset with different dosages of Ie (Zealonga scores)
Procedure: A 10% chloral hydrate solution (400 mg/kg) was injected intraperitoneally into male SD rats (250 to 300 g) for anesthesia. An incision of about 2 cm in length was longitudinally made slightly on the right to the center of the neck, and the right carotid common artery, carotid external artery and carotid internal artery were dissected along the margin of the inner side of sternocleidomastoid muscles. The open incision in the carotid internal artery and the proximal end of the common carotid artery were occluded respectively with noninvasive arterial clips. A small incision was made on the carotid external artery, and the distal end of the carotid external artery was ligated. The arterial clip at the proximal end of the carotid external artery was released, and 10 μl blood was drawn before the proximal end of the common carotid artery was again occluded with a noninvasive arterial clip. The 10 μl blood drawn was placed in a 1 mL EP vial and kept at RT for 30 min until coagulation of blood, and then transferred into a −20° C. refrigerator for 1 h to allow solid coagulation. After 1 h, the blood clots were taken out, added into 1 mL saline, and then broken into relatively uniform microthrombus by using a steel spatula. The microthrombus suspension was then transferred into a 1 mL injector until use. At the same time when the clip on the carotid internal artery of the rat was released, the 1 mL thrombus suspension in the injector was slowly injected from the carotid external artery of the rat to its proximal end, and then was injected into the brain of the rat through the carotid internal artery. Subsequently, the proximal end of the carotid external artery was ligated, the arterial clips on the carotid internal artery and the carotid common artery were released, and blood flow was restored. Injection of urokinase in normal saline (positive control group, at a dosage of 20000 IU/kg), tPA in normal saline (positive control group, at a dosage of 3 mg/kg), normal saline (blank control group, at a dosage of 3 mL/kg), or compound Ie in normal saline (at a dosage of 1 μmol/kg, 0.1 μmol/kg or 0.01 μmol/kg) was carried out. 24 h after the rats were awake, the degree of damage in neural function was evaluated by the Zealonga method. A score of 0 indicated no sign of loss in neural function, 1 indicated the front limbs on the undamaged side could not stretch out, 2 indicated walking toward the undamaged side, 3 indicated tail-chasing walking in circles toward the undamaged side, 4 indicated involuntary walking with disturbance of consciousness, and 5 indicated death. As shown in the results, in rats receiving immediate treatment after the onset of stroke with […] compound Ie, the percentage of rats with a neural function score of 0 was 60%, 30%, and 0%, respectively; and the percentage of rats with a neural function score of 1 was 20%, 30%, and 10%, respectively.

[2] = test system: rats with stroke; assay: Successive treatments with 1 μmol/kg Ie starting 6 h after the onset of stroke (Zealonga scores)
Procedure: The efficacy was represented by neural function scores, and a lower score indicates higher efficacy. A 10% chloral hydrate solution was injected intraperitoneally into male SD rats at a dosage of 400 mg/kg body weight for anesthesia. A longitudinal open incision was made at the center of the neck, and the right common carotid artery trunk was dissected (about 3 cm in length). Carotid external artery branches were each dissected and ligated at the hyoid level, and the carotid internal artery was dissected at the swollen part of the neck. The open incision in the carotid internal artery and the proximal end of the common carotid artery were occluded respectively with noninvasive arterial clips, and the distal end of the carotid external artery was ligated. A catheter containing 0.5 mL thrombus suspension in normal saline was inserted in the carotid external artery trunk. At the same time when the clip on the carotid internal artery was released, the 0.5 mL thrombus suspension in normal saline in the catheter slowly flew from the carotid external artery to its proximal end, and then was injected into the arteries in brain through the carotid internal artery. Subsequently, the proximal end of the carotid artery was ligated, the arterial clips on the carotid internal artery and the common carotid artery were released, and blood flow was restored. After the wound was stitched up, 20,000 IU penicillin was intramuscularly injected for prevention from infection. After 6 h, compound Ie in normal saline (at a dosage of 1 μmol/kg, n=11), urokinase in normal saline (at a dosage of 20000 IU/kg, n=6) or tPA in normal saline (at a dosage of 3 mg/kg, n=6) was infused through the tail vein. Infusion of compound Ie in normal saline through rat tail vein was carried out once per day for 6 consecutive days, observed for 7 days. The rats were compared to themselves each day, and evaluated for the degree of damage in neural function by the Zealonga method. Alternatively, infusion of urokinase in normal saline through rat tail vein was carried out once per day for two consecutive days, the rats were compared to themselves each day, and evaluated for the degree of damage in neural function by the Zealonga method. Alternatively, infusion of tPA in normal saline through rat tail vein was carried out once per day for two consecutive days, the rats were compared to themselves each day, and evaluated for the degree of damage in neural function by the Zealonga method. A score of 0 indicated no sign of loss in neural function, 1 indicated the front limbs on the undamaged side could not stretch out, 2 indicated walking toward the undamaged side, 3 indicated tail-chasing walking in circles toward the undamaged side, 4 indicated involuntary walking with disturbance of consciousness, and 5 indicated death.

[3] = test system: rats with stroke; assay: Successive treatments starting 4 h after the onset of stroke (Zealonga scores)
Procedure: The efficacy was represented by neural function scores, and a lower score indicates higher efficacy. A 10% chloral hydrate solution was injected intraperitoneally into male SD rats at a dosage of 400 mg/kg body weight for anesthesia. A longitudinal incision was made at the center of the neck, and the right carotid common artery trunk was dissected (about 3 cm in length). Carotid external artery branches were each dissected and ligated at the hyoid level, and the carotid internal artery was dissected at the swollen part of the neck. The open incision in the carotid internal artery and the proximal end of the common carotid artery were occluded respectively with noninvasive arterial clips, and the distal end of the carotid external artery was ligated. A catheter containing 0.5 mL thrombus suspension in normal saline was inserted in the carotid external artery trunk. At the same time when the clip on the carotid internal artery was released, the 0.5 mL thrombus suspension in normal saline in the catheter slowly flew from the carotid external artery to its proximal end, and then was injected into the arteries in brain through the carotid internal artery. Subsequently, the proximal end of the carotid artery was ligated, the arterial clips on the carotid internal artery and the common carotid artery were released, and blood flow was restored. After the wound was stitched up, 20,000 IU penicillin was intramuscularly injected for prevention from infection. After 4 h, compound Ie in normal saline (at a dosage of 1 μmol/kg, n=1), urokinase in normal saline (at a dosage of 20000 IU/kg, n=6) or tPA in normal saline (at a dosage of 3 mg/kg, n=6) was infused through the tail vein. Infusion of compound Ie in normal saline through rat tail vein was carried out once per day for 6 consecutive days, observed for 7 days. The rats were compared to themselves each day, and evaluated for degree of damage in neural function by the Zealonga method. Alternatively, infusion of urokinase in normal saline through rat tail vein was carried out once per day for two consecutive days, the rats were compared to themselves each day, and evaluated for the degree of damage in neural function by the Zealonga method. Alternatively, infusion of tPA in normal saline through rat tail vein was carried out once per day for two consecutive days, the rats were compared to themselves each day, and evaluated for the degree of damage in neural function by the Zealonga method. A score of 0 indicated no sign of loss in neural function, 1 indicated the front limbs on the undamaged side could not stretch out, 2 indicated walking toward the undamaged side, 3 indicated tail-chasing walking in circles toward the undamaged side, 4 indicated involuntary walking with disturbance of consciousness, and 5 indicated death.

[4] = Day 1, tPA 3 mg/kg once per day from 6 h after stroke onset, n=6
[5] = Day 2, tPA 3 mg/kg once per day from 6 h after stroke onset, n=6
[6] = Day 1, tPA 3 mg/kg once per day from 4 h after stroke onset, n=6
[7] = Day 2, tPA 3 mg/kg once per day from 4 h after stroke onset, n=6

Substance: tPA: tissue-type plasminogen activator, positive control
- percentage of rats with a neural function score of 0 ([1]; 3 mg/kg tPA): 40%
- percentage of rats with a neural function score of 1 ([1]; 3 mg/kg tPA): 10%
- number of rats scored Score 0 ([1]; tPA 3 mg/kg, n = 10): 4
- number of rats scored Score 1 ([1]; tPA 3 mg/kg, n = 10): 1
- number of rats scored Score 2 ([1]; tPA 3 mg/kg, n = 10): 1
- number of rats scored Score 3 ([1]; tPA 3 mg/kg, n = 10): 3
- number of rats scored Score 4 ([1]; tPA 3 mg/kg, n = 10): 1
- number of rats scored Score 5 ([1]; tPA 3 mg/kg, n = 10): 0
- number of rats scored Score 0 [2, 4]: 1 rat^ rats
- number of rats scored Score 1 [2, 4]: 1 rat rats
- number of rats scored Score 2 [2, 4]: 1 rat rats
- number of rats scored Score 3 [2, 4]: 1 rat rats
- number of rats scored Score 4 [2, 4]: 2 rats
- number of rats scored Score 0 [2, 5]: 2 rats
- number of rats scored Score 2 [2, 5]: 1 rat rats
- number of rats scored Score 3 [2, 5]: 1 rat rats
- rats recovered to have only the sign of slight loss in neural function ([2]; after two doses, tPA 3 mg/kg each day from 6 h after stroke onset, 6 rats): 2 rats
- rats died ([2]; out of 6 rats, within 24 h, tPA 3 mg/kg each day from 6 h after stroke onset): 2
- autopsy on the dead rats ([2]; tPA 3 mg/kg each day from 6 h after stroke onset): hemorrhage in internal organs, particularly severe hemorrhage in lungs
- number of rats scored Score 1 [3, 6]: 2 rats
- number of rats scored Score 2 [3, 6]: 3 rats
- number of rats scored Score 3 [3, 6]: 1 rat rats
- number of rats scored Score 0 [3, 7]: 2 rats
- number of rats scored Score 1 [3, 7]: 2 rats
- number of rats scored Score 2 [3, 7]: 1 rat^ rats
- rats recovered to have only the sign of slight loss in neural function ([3]; after two doses, tPA 3 mg/kg each day from 4 h after stroke onset, 6 rats): 2 rats
- rats died ([3]; out of 6 rats, within 24 h, tPA 3 mg/kg each day from 4 h after stroke onset): 1
- autopsy on the dead rat ([3]; tPA 3 mg/kg each day from 4 h after stroke onset): hemorrhage in internal organs, particularly severe hemorrhage in lungs

From US10806798B2, “Compound with effects of thrombolysis, free radical scavenging and thrombus-targeting” (Shanghai Lumosa Therapeutics Co., Ltd., priority 2012, dated 2020)
